Active and inactive are the calls of the source. The calls are words filed in the database; no cut-off is given here.
Columns and labels:
Plasmodium falciparum [1] = assay: Antimalarial activity against synchronized Plasmodium falciparum Dd2 (MRA-150) infected in human O-postive erythrocytes assessed as reduction in parasite growth after 72 hrs by SYBR green I staining based fluorescence assay; assay type: functional, organism-based
Plasmodium falciparum [2] = assay: Antimalarial activity against synchronized Plasmodium falciparum Dd2 (MRA-150) infected in human O-postive erythrocytes in presence of IPP assessed as reduction in parasite growth at 2.5 uM measured after 72 hrs by SYBR green I staining based fluorescence assay relative to control; assay type: functional; set-up: scale not given: the % may be the effect or the level left
Plasmodium falciparum [3] = assay: Antimalarial activity against Plasmodium falciparum 3D7 (MRA-102) infected in human O-postive erythrocytes measured after 72 hrs by SYBR green I staining based fluorescence assay; assay type: functional, organism-based; settings: 3D7 MRA-102, 72 h
Plasmodium falciparum [4] = assay: Antimalarial activity against KAE609 resistant Plasmodium falciparum Dd2 infected in human O-postive erythrocytes measured after 72 hrs by SYBR green I staining based fluorescence assay; assay type: functional, organism-based; settings: Dd2, 72 h
Plasmodium falciparum [5] = assay: Antimalarial activity against Plasmodium falciparum W2 infected in human O-postive erythrocytes measured after 72 hrs by SYBR green I staining based fluorescence assay; assay type: functional, organism-based; settings: W2, 72 h
Plasmodium falciparum [6] = assay: Antimalarial activity against Plasmodium falciparum 4G infected in human O-postive erythrocytes measured after 72 hrs by SYBR green I staining based fluorescence assay; assay type: functional, organism-based
Plasmodium falciparum [7] = assay: Antimalarial activity against Plasmodium falciparum 3D7A incubated for 48 hrs by [3H]-hypoxanthine incorporation assay; assay type: functional, organism-based; settings: 3D7
Plasmodium falciparum [8] = assay: Antimalarial activity against Plasmodium falciparum 3D7 (MRA-102) incubated for 72 hrs by Lactate dehydrogenase activity; assay type: functional, organism-based; settings: 3D7 MRA-102, 72 h
HEK293 = assay: Cytotoxicity against human HEK293 cells by resazurin based cell viability assay; assay type: functional
Hepatocyte = assay: Cytotoxicity against human hepatocytes measured after 96 hrs by DAPI staining based fluroscence assay; assay type: functional
Escherichia coli = assay: Antibacterial activity against Escherichia coli (BL21) assessed as bacterial growth after 18 hrs by g a cell density meter; assay type: functional
[9] = target: Voltage-gated inwardly rectifying potassium channel KCNH2 (Homo sapiens, UniProt Q12809); assay: Inhibition of human ERG expressed in HEK-293 cells by patch clamp method; assay type: cell-based, HEK293
Sequence of Voltage-gated inwardly rectifying potassium channel KCNH2 (Q12809 whole entry): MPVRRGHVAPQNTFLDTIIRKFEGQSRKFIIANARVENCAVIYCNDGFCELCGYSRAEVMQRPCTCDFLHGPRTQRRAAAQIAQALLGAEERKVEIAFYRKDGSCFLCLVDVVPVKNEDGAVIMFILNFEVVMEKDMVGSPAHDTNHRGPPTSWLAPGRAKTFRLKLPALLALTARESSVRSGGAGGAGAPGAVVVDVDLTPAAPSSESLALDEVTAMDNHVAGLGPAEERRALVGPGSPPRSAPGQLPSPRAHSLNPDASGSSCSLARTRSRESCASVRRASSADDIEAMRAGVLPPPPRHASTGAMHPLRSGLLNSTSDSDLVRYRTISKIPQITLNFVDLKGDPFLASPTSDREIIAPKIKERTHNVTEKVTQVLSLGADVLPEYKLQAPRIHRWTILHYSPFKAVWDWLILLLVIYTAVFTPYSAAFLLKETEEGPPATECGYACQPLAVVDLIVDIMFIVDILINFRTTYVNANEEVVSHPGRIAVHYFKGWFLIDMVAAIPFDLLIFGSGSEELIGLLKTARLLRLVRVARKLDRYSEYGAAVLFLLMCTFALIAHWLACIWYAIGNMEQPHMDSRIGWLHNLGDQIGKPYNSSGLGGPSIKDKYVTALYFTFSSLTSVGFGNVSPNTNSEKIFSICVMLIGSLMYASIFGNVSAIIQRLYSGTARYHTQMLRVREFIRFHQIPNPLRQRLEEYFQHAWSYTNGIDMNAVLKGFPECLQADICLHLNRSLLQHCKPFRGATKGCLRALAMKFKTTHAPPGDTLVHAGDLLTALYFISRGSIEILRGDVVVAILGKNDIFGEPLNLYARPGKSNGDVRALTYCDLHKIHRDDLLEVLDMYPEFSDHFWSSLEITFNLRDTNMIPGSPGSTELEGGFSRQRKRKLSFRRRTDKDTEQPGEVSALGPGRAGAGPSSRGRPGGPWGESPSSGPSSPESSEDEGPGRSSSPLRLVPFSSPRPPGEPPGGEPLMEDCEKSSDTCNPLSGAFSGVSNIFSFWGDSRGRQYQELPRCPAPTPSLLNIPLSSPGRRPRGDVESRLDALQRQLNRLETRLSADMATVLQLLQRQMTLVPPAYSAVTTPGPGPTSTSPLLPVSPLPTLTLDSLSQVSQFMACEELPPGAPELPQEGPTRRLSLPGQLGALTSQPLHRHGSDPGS

[10] = Lipophilicity, logD of the compound between 1-octanol and PBS pH 7.4 at 10 mM by LC-MS analysis; assay type: physicochemical; settings: 1-octanol/PBS
[11] = Thermodynamic solubility of PBS at pH 7.4 by LC-MS analysis; assay type: physicochemical; settings: read-out: Therm_solubility
[12] = Half life in CD-1 mouse liver microsomes after 60 mins by LC-MS analysis; assay type: ADME, Microsome
[13] = Oral bioavailability in rat at 40 mg/kg; assay type: ADME, organism-based; settings: in vivo
[14] = Cmax in rat at 40 mg/kg, po; assay type: ADME, organism-based; set-up: route oral, dose 40 mg/kg; settings: in vivo
[15] = Half life in rat plasma 40 mg/kg, po; assay type: ADME, organism-based
[16] = Volume of distribution in rat at 10 mg/kg , iv; assay type: ADME, organism-based; settings: in vivo
[17] = Toxicity in mouse infected with Plasmodium berghei ANKA assessed as lethargy at 40 mg/kg, po measured after 4 days; assay type: organism-based; settings: in vivo, 96 h, time 4 day
[18] = Toxicity in mouse infected with Plasmodium berghei ANKA assessed as gait at 40 mg/kg, po measured after 4 days; assay type: organism-based; settings: in vivo, 96 h, time 4 day
[19] = Toxicity in mouse infected with Plasmodium berghei ANKA assessed as weight loss at 40 mg/kg, po measured after 4 days; assay type: organism-based; settings: in vivo, 96 h, time 4 day
[20] = Toxicity in mouse infected with Plasmodium berghei ANKA assessed as ruffled fur at 40 mg/kg, po measured after 4 days; assay type: organism-based; settings: in vivo, 96 h, time 4 day
[21] = Toxicity in mouse infected with Plasmodium berghei ANKA assessed as behavioural changes at 40 mg/kg, po measured after 4 days; assay type: organism-based; settings: in vivo, 96 h, time 4 day
Plasmodium berghei [22] = assay: Antimalarial activity against Plasmodium berghei ANKA expressing luciferase, PbGFP-Luccon infected in mouse assessed as reduction in parasitemia at 20 mg/kg, po measured after 4 days by luminescence assay; assay type: functional, organism-based; settings: time 4.0 day
Plasmodium berghei [23] = assay: Antimalarial activity against Plasmodium berghei ANKA expressing luciferase, PbGFP-Luccon infected in mouse assessed as reduction in parasitemia at 40 mg/kg, po measured after 4 days by luminescence assay; assay type: functional, organism-based; settings: time 4.0 day
[24] = Stability in CD-1 mouse plasma at 1 hour by LC-MS analysis a; assay type: ADME, cell-free; settings: read-out: Stability
Plasmodium falciparum [25] = assay: Antimalarial activity against synchronized Plasmodium falciparum Dd2 (MRA-150) infected in human O-postive erythrocytes in presence of IPP assessed as reduction in parasite growth at 5 uM measured after 72 hrs by SYBR green I staining based fluorescence assay relative to control; assay type: functional; set-up: scale not given: the % may be the effect or the level left

COC(=O)c1cc2c([nH]c3c(C)cccc32)c(-c2ccc(Cl)c(Cl)c2)n1
EC50 (Plasmodium falciparum [1]): > 10000 nM

O=C(O)[C@@H]1Cc2c([nH]c3ccccc23)[C@@H](c2ccc(Cl)cc2Cl)N1
Activity (Plasmodium falciparum [2]): 100%

CNCCNC(=O)c1cc2c([nH]c3c(C)cccc32)c(-c2ccccc2)n1
EC50 (Plasmodium falciparum [1]): 4000 nM

CNCCNC(=O)[C@H]1Cc2c([nH]c3c(C)cccc23)[C@H](c2ccc(Cl)cc2Cl)N1
EC50 (Plasmodium falciparum [1]): 3690 nM

CNCCCNC(=O)c1cc2c([nH]c3c(C)cccc32)c(-c2ccc(Cl)c(Cl)c2)n1
EC50 (Plasmodium falciparum [1]): 217 nM

Cc1cccc2c1[nH]c1c(-c3ccc(Cl)c(Cl)c3)nc(C(=O)NCCN(C)C)cc12
EC50 (Plasmodium falciparum [1]): 264 nM

CNCCNC(=O)[C@@H]1Cc2c([nH]c3c(C)cccc23)[C@H](c2ccc(Cl)cc2Cl)N1
EC50 (Plasmodium falciparum [1]): 1300 nM

CNCCNC(=O)c1cc2c([nH]c3c(C)cccc32)c(-c2ccc(Cl)cc2)n1
EC50 (Plasmodium falciparum [1]): 274 nM

CNCCNC(=O)c1cc2c([nH]c3ccccc32)c(-c2ccccc2)n1
EC50 (Plasmodium falciparum [1]): 2500 nM

Cc1cccc2c1[nH]c1c(-c3ccc(Cl)c(Cl)c3)nc(C(=O)NCCCN)cc12
EC50 (Plasmodium falciparum [1]): 726 nM

CNCCNC(=O)c1cc2c([nH]c3c(C)cccc32)c(-c2ccc(Cl)c(Cl)c2)n1.Cl
EC50 (Plasmodium falciparum [3]): 53 nM
EC50 (Plasmodium falciparum [1]): 108 nM
Activity (Plasmodium falciparum [2]): 0%
EC50 (Plasmodium falciparum [4]): 101 nM
EC50 (Plasmodium falciparum [5]): 100 nM
EC50 (Plasmodium falciparum [6]): 110 nM
IC50 (Plasmodium falciparum [7]): 70 nM
IC50 (Plasmodium falciparum [8]): 117 nM
CC50 (HEK293): 32000 nM
CC50 (Hepatocyte): 8500 nM
MIC (Escherichia coli): > 250 µM
IC50 [9]: 510 nM
logD at 10000 µM [10]: 3.3
solubility thermodynamic [11]: 9.5 µM
half-life [12]: 1.83 h
bioavailability [13]: 40%
Cmax [14]: 800 nM
half-life [15]: 8 h
Vd [16]: 21.8 L/kg
Activity [17]: Non-Toxic
Activity [18]: Non-Toxic
Activity [19]: Non-Toxic
Activity [20]: Non-Toxic
Activity [21]: Non-Toxic
Activity (Plasmodium berghei [22]): inactive
Activity (Plasmodium berghei [23]): Active
remaining at 1 h [24]: 100%

CNCCNC(=O)c1cc2c([nH]c3ccccc32)c(-c2ccc(Cl)cc2)n1
EC50 (Plasmodium falciparum [1]): 496 nM

CNCCNC(=O)c1cc2c([nH]c3c(C)cccc32)c(-c2cccc(Cl)c2)n1
EC50 (Plasmodium falciparum [1]): 342 nM

CNC(=O)c1cc2c([nH]c3c(C)cccc32)c(-c2ccc(Cl)c(Cl)c2)n1
EC50 (Plasmodium falciparum [1]): > 10000 nM

CCCCNC(=O)c1cc2c([nH]c3c(C)cccc32)c(-c2ccc(Cl)c(Cl)c2)n1
EC50 (Plasmodium falciparum [1]): 1020 nM

CNCCNC(=O)c1cc2c([nH]c3ccccc32)c(-c2cccc(Cl)c2)n1
EC50 (Plasmodium falciparum [1]): 641 nM

CNCCNC(=O)[C@H]1Cc2c([nH]c3c(C)cccc23)[C@@H](c2ccc(Cl)cc2Cl)N1
EC50 (Plasmodium falciparum [1]): 1430 nM

CCN(CC)CCCC(C)Nc1ccnc2cc(Cl)ccc12 (configuration not stated)
Activity (Plasmodium berghei [23]): Active

Cc1cccc2c1[nH]c1c(-c3ccc(Cl)c(Cl)c3)nc(C(=O)NCCO)cc12
EC50 (Plasmodium falciparum [1]): 3270 nM

CNCCNC(=O)c1cc2c([nH]c3c(C)cccc32)c(-c2ccc(Cl)cc2Cl)n1
EC50 (Plasmodium falciparum [1]): 583 nM

Cc1cccc2c1[nH]c1c(-c3ccc(Cl)c(Cl)c3)nc(C(=O)O)cc12
EC50 (Plasmodium falciparum [1]): > 10000 nM

Cc1cccc2c1[nH]c1c(-c3ccc(Cl)c(Cl)c3)nc(C(=O)NCCCN(C)C)cc12
EC50 (Plasmodium falciparum [1]): 240 nM

Cc1cccc2c1[nH]c1c(-c3ccc(Cl)c(Cl)c3)nc(C(=O)NCCN)cc12
EC50 (Plasmodium falciparum [1]): 263 nM

CNCCNC(=O)[C@@H]1Cc2c([nH]c3c(C)cccc23)[C@@H](c2ccc(Cl)cc2Cl)N1
EC50 (Plasmodium falciparum [1]): 1950 nM
Activity (Plasmodium falciparum [25]): 50%

CNCCNC(=O)c1cc2c([nH]c3ccccc32)c(-c2ccc(Cl)c(Cl)c2)n1
EC50 (Plasmodium falciparum [1]): 277 nM
